{"source": "patent US20100144788A1", "about": "(priority 2007, published 2010)", "key": {"NET": {"molecular_target": "T1, NET (Rattus norvegicus, UniProt Q9WTR4)", "T1 construct": "rat cortical synaptosome preparation; from tissue; host or cells: rat cortical synaptosomes", "T1 sequence (Q9WTR4 1-597)": "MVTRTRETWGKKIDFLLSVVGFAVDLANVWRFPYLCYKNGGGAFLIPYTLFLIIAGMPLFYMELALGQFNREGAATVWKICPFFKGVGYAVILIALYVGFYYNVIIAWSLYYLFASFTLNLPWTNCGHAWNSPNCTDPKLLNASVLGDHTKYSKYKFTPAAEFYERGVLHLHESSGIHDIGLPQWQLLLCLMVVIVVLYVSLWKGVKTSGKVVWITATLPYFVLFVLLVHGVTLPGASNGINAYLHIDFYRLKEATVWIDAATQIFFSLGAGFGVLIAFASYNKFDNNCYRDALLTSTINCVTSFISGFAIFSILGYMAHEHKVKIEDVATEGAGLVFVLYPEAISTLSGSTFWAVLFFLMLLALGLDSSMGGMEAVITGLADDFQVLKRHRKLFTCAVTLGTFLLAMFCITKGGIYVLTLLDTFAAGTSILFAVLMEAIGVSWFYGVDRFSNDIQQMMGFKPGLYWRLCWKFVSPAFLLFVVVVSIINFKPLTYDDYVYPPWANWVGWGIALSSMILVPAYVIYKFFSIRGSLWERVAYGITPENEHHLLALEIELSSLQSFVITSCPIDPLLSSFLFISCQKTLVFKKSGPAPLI", "assay": "Norepinephrine (NE) reuptake inhibition, rat cortical synaptosomes, [3H]NE", "assay_type": "biochemical", "details": "[3H]NE 10 nM", "experimental": "Non-specific uptake was determined in the presence of 10 μM talsupram or citalopram and the total uptake was determined in the presence of buffer. Aliquots were incubated for 15 minutes at 37° C. […] Filters were washed and counted in a Wallac MicroBeta counter."}, "[1]": {"molecular_target": "T2, human alpha1A-7 receptors (Homo sapiens, UniProt P35348)", "T2 construct": "expressed in transfected cells; host or cells: CHO cells", "T2 sequence (P35348 1-466)": "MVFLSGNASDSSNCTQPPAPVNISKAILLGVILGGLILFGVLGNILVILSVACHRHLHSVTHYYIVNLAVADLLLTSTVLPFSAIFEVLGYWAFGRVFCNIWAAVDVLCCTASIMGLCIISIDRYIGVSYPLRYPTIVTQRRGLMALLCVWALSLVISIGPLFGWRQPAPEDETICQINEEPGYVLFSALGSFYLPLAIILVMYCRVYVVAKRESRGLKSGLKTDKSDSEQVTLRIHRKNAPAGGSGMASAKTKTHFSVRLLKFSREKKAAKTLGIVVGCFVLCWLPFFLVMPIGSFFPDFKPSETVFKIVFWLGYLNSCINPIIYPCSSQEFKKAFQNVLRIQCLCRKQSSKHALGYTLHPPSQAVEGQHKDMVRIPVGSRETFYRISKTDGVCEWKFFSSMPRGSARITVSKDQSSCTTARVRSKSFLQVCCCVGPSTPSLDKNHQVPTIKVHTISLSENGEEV", "assay": "Antagonism of adrenaline evoked release of Ca2+ in CHO cells expressing human alpha1A-7 receptors (FLIPR)", "assay_type": "cell-based", "details": "functional assay", "experimental": "These experiments were carried out essentially as described below. All cells were cultured in DMEM medium supplemented with 10% BCS, 4 mM L-glutamine (or 2 mM in the case of COS-7), and 100 units/ml penicillin plus 100 μg/ml streptomycin, at 37° C., in 5% CO2. Twenty-four hours prior to assays, CHO cells expressing the human alpha1A-7 receptors were seeded into 384-well black wall microtiter plates coated with poly-D-lysine. […] After excess dye was discarded, cells were washed in assay buffer and layered with a final volume equal to 45 μl/well (or 30 ul/well for antagonist assay). […] Basal fluorescence was monitored in a fluorometric imaging plate reader or FLIPR™ from Molecular Devices (Sunnyvale, Calif.) with an excitation wavelength of 488 nm and an emission range of 500 to 560 nm. Laser excitation energy was adjusted so that basal fluorescence readings were approximately 8,000 relative fluorescent units (RFU). Cells were then stimulated at room temperature with agonists diluted in assay buffer (15 μl), and RFU were measured at 1.5 second intervals over a period of 2.5 min. Maximum change in fluorescence was calculated for each well. Concentration-response curves derived from the maximum change in fluorescence were analyzed by nonlinear regression (Hill equation)."}, "[2]": {"tested_on": "extracellular levels of acetylcholine", "assay": "Microdialysis, extracellular acetylcholine in prefrontal cortex of freely-moving Wistar rats (Example 2F)", "assay_type": "in vivo, rat", "details": "s.c.", "experimental": "Male Wistar rats (280-350 g; Harlan, Zeist, The Netherlands) were used for the experiments. Rats were individually housed in plastic cages (30×30×40 cm) and had ad libitum access to food and water.\nRats were anesthetized using isoflurane (2%, 400 mL/min N2O, 400 ml/min O2). Lidocain (10% m/v) was used for local anesthesia. Each animal was placed into a stereotaxic frame (Kopf instruments, USA), and home-made I-shaped probes (Hospal AN 69 membrane, 4 mm exposed surface) were inserted into the medial prefrontal cortex (mPFC) using the rat brain atlas of Paxinos and Watson (1982). Coordinates for the tip of the probe was mPFC [AP=3.4 mm, L=−0.8 mm, V=5.0 mm]. The probe was then fixed to the skull with dental cement and a srew. Flunixin (1 mg/kg s.c.) was administered as post-operative analgesic.\nExperiments were carried out 24-48 hours after surgery. […] Samples were collected by an automated fraction collector (CMA 142), and stored at −80° C. until analyzed. […]\nConcentrations of acetylcholine were determined by HPLC with tandem mass spectrometry (MS/MS) detection. […]\nThe LC/MS analyses were performed using a API 4000 MS/MS system consisting of a API 4000 MS/MS detector and a Turbo Ion Spray interface (both from Applied Biosystems, the Netherlands). […] Data were calibrated and quantitated using the Analyst™ data system (Applied Biosystem, version 1.2). […]"}, "[3]": {"tested_on": "extracellular levels of acetylcholine", "assay": "Microdialysis, extracellular acetylcholine in prefrontal cortex and ventral hippocampus of Sprague-Dawley rats (Example 2G)", "assay_type": "in vivo, rat", "experimental": "Male Sprague-Dawley rats, initially weighing 275-300 g, were used. The animals were housed under a 12-hr light/dark cycle under controlled conditions for regular in-door temperature (21±2° C.) and humidity (55±5%) with food and tap water available ad libitum.\nRats were anaesthetised with hypnorm/dormicum (2 ml/kg) and intracerebral guide cannulas (CMA/12) were stereotaxically implanted into the hippocampus, aiming to position the dialysis probe tip in the ventral hippocampus (co-ordinates: 5,6 mm posterior to bregma, lateral −5,0 mm, 7,0 mm ventral to dura or in the frontal cortex (co-ordinates: 3,2 mm anterior to bregma; lateral, 0,8 mm; 4,0 mm ventral to dura). Anchor screws and acrylic cement were used for fixation of the guide cannulas. The body temperature of the animals was monitored by rectal probe and maintained at 37° C. The rats were allowed to recover from surgery for 2 days, housed singly in cages. […]\nConcentration of acetylcholine (ACh) in the dialysates was analysed by means of HPLC with electrochemical detection using a mobile phase consisting of 100 mM disodium hydrogenphosphate, 2.0 mM octane sulfonic acid, 0.5 mM tetramethyl-ammonium chloride and 0.005% MB (ESA), pH 8.0. […] The latter was detected electrochemical by using a platinum electrode (Analytical cell: ESA, model 5040). […]"}, "[4]": {"tested_on": "Spontaneously hypertensive rats (SHR)", "assay": "Spontaneously hypertensive rats, animal model of ADHD: operant task with delayed food-reward and circadian activity recording", "assay_type": "in vivo, rat", "experimental": "Core symptoms of ADHD are attention deficit, hyperactivity and increased impulsiveness. Spontaneously hypertensive rats (SHR) were used as animal model for attention deficit hyperactivity disorder (ADHD), Wistar Kyoto rats (the root strain of SHR) served as controls [Biol. Psychiatry. 57, 1239-47, 2005]. To assess these symptoms, an operant task involving a delayed food-reward was used to measure attention- and impulsiveness-related parameters. Attention deficits were measured as increase in the number of lever presses on the wrong side. Impulsiveness was measured as lever presses and reward chamber inspections during the OFF state in test sessions without delayed reward and during the delay interval in the test sessions with delayed rewarding. Hyperactivity was monitored by circadian recording in infra-red cages.\nMethods: Operant testing was performed in 20 hours sessions, each in operant behaviour cages with two levers and adjacent reward chambers on the right and left side of the lever panel. The animals had access to food only via lever presses, and fluid was freely available. Training and testing consisted of the following phases:\n• (1) Both levers were continuously active (indicated by a signal light). […] The signal light on the correct side indicated the state of the lever (ON or OFF).\n• (1) Like Acquisition (3) • (2) Like (1), except that after a lever press of an active lever, the reward was not presented immediately, but after a delay interval of 5 seconds."}, "[5]": {"assay": "Hydrate formation when precipitated from water", "assay_type": "physicochemical", "source_text": "Crystals used in the present invention may exist as solvates, i.e. crystals wherein solvent molecules form part of the crystal structure. The solvate may be formed from water, in which case the solvates are often referred to as hydrates. Alternatively, the solvates may be formed from other solvents, such as e.g. ethanol, acetone, or ethyl acetate. The exact amount of solvate often depends on the conditions. For instance, hydrates will typically loose water as the temperature is increased or as the relative humidity is decreased."}, "[6]": {"assay": "Solubility of salts in water with pH of the saturated solution and identity of the precipitate"}, "[7]": {"details": "SHR rats, 5 and 10 mg/kg i.p., injected 30 min before testing"}, "[8]": {"details": "SHR, methylphenidate 2 and 5 mg/kg i.p. intermittent, ~10 mg/kg/day chronic via drinking water"}}}
{"smiles": "Cc1ccc(Sc2ccccc2C2CCNCC2)cc1", "note": "[compound I, 4-[2-(4-methylphenylsulfanyl)-phenyl]piperidine]", "values": [{"measurement": "IC50", "setting": "NET", "result": 23, "unit": "nM"}, {"measurement": "adrenaline evoked release of Ca2+ from intracellular stores", "setting": "[1]", "result": "antagonises"}, {"measurement": "extracellular level of acetylcholine", "setting": "[2]", "result": "increase"}, {"measurement": "extracellular level of acetylcholine", "setting": "[3]", "result": "increase"}, {"measurement": "acquisition of the task or general motivation of food seeking", "setting": "[4]; SHR rats, 5 and 10 mg/kg i.p.", "result": "did not affect"}, {"measurement": "attention deficits", "setting": "[4]; [7]", "result": "reduced"}, {"measurement": "impulsiveness", "setting": "[4]; [7]", "result": "reduced"}, {"measurement": "hyperactivity - locomotor activity", "setting": "[4]; SHR rats, 5 and 10 mg/kg i.p., circadian activity monitoring, for 1 hour without prolonged effects", "result": "dose-dependently depressed"}]}
{"smiles": "O=C(O)CCC(=O)O", "note": "[Succinic acid, 1,4-butanedioic acid, 2:1]", "values": [{"measurement": "formation of hydrates", "setting": "[5]", "result": "do"}]}
{"smiles": "COC(=O)C(c1ccccc1)C1CCCCN1", "note": "(centres unmarked) [Methylphenidate, reference compound]", "values": [{"measurement": "attention deficit", "setting": "[4]; [8]", "result": "no reduction"}, {"measurement": "impulsiveness", "setting": "[4]; [8]", "result": "no reduction"}, {"measurement": "time course of activity", "setting": "[4]; chronic administration via drinking water, ~10 mg/kg/day", "result": "did not alter"}, {"measurement": "hyperactivity of SHR", "setting": "[4]; intermittent administration, 2 and 5 mg/kg i.p., effect lasted a few hours", "result": "markedly and dose-dependently aggravated"}]}
{"smiles": "Cc1ccc(Sc2ccccc2C2CCNCC2)cc1", "values": [{"measurement": "formation of hydrates", "setting": "[5]", "result": "do"}]}
{"smiles": "O=C(O)CCCC(=O)O", "note": "[Glutaric acid, 1,5-pentanedioic acid 1:1]", "values": [{"measurement": "Resulting pH", "setting": "[6]; pH in the saturated solution of the salt in water", "result": 4.6}, {"measurement": "Precipitate", "setting": "[6]; whether precipitate isolated after the solubility determination is identical to the compound dissolved, indicative of hydrate formation", "result": "=start"}]}
{"smiles": "Br.Cc1ccc(Sc2ccccc2C2CCNCC2)cc1", "note": "[HBr, 4-(2-p-Tolylsulfanyl-phenyl)-piperidine hydrobromide]", "values": [{"measurement": "formation of hydrates", "setting": "[5]", "result": "does not form hydrates"}]}
